Columns and labels:
[1] = test system: breast cancer; assay: Clinical trial of 137 breast cancer patients treated with epirubicin (progression free survival, DRP validation); assay type: in vivo, human
From the text: The biomarkers of sensitivity and resistance identified in Example 2 and shown in Tables 3 and 4 have been validated in a clinical trial of 137 breast cancer patients treated with epirubicin. Patients were examined every 9 to 12 weeks by CT scan and clinical evaluation. After patient informed consent, mRNA was isolated from formalin fixed paraffin embedded tumor tissue from diagnostic biopsies and analyzed using Affymetrix arrays. Blinded predictions of epirubicin efficacy were compared to clinical data collected retrospectively from patient medical records. Statistical analysis was performed using Cox proportional hazards model adjusted for treatment line. The primary endpoint was progression free survival (PFS). Median time to progression was 9.3 months (95% CI: 7.2-13.2). Of the 137 patients, four received epirubicin more than once.
The estimated hazard ratio was 0.56 (90% CI: 0.35-0.89) comparing two patients with DRP score differing by 50 percentage points. The estimated median time to progression for a patient with a DRP value of 25% was 7 months versus 13 months for a patient with a DRP value of 75%. No interaction with previous adjuvant chemotherapy was observed (p=0.98).

[2] = test system: NCI60 cancer cell lines; assay: NCI60 growth assay: growth inhibition (GI50) profiles of therapeutic agents and their similarity; assay type: cell-based, human
Method: The human tumor cell lines of the cancer screening panel may be grown in RPMI 1640 medium containing 5% fetal bovine serum and 2 mM L-glutamine. Cells may be inoculated into 96 well microtiter plates in 100 μL at plating densities ranging from 5,000 to 40,000 cells/well depending on the doubling time of individual cell lines. After cell inoculation, the microtiter plates may be incubated at 37° C., 5% CO2, 95% air and 100% relative humidity for 24 hours prior to addition of experimental agent (e.g., an anthracycline, such as doxorubicin, epirubicin, daunorubicin, or idarubicin, or an anthracycline-containing liposome, such as a doxorubicin-containing liposome (e.g., 2B3-101)). […]
Following agent addition (e.g., an anthracycline, such as doxorubicin, epirubicin, daunorubicin, or idarubicin, or an anthracycline-containing liposome, such as a doxorubicin-containing liposome (e.g., 2B3-101)), the plates may be incubated for an additional 48 h at 37° C., 5% CO2, 95% air, and 100% relative humidity. […] Bound stain may be subsequently solubilized with 10 mM trizma base, and the absorbance may be read on an automated plate reader at a wavelength of 515 nm. […] Percentage growth inhibition may be calculated as: [(Ti−Tz)/(C−Tz)]×100 for concentrations for which Ti>/=Tz [(Ti−Tz)/Tz]×100 for concentrations for which Ti<Tz […]

SMILES	Median time to progression ([1]; 137 breast cancer patients treated with epirubicin)	estimated median time to progression ([1]; patient with a DRP value of 25%)	estimated median time to progression ([1]; patient with a DRP value of 75%)	anti-tumor activity compared with doxorubicin [2]	effect on the NCI60 tumor cell lines in multidimensional scaling plot of growth inhibition profiles ([2]; NCI60 growth assay, FIG. 1)
COc1cccc2c1C(=O)c1c(O)c3c(c(O)c1C2=O)C[C@@](O)(C(=O)CO)C[C@@H]3O[C@H]1C[C@H](N)[C@@H](O)[C@H](C)O1 [epirubicin]	9.3 months	7 months	13 months	nearly identical to that of doxorubicin	–
CC(=O)[C@]1(O)Cc2c(O)c3c(c(O)c2[C@@H](O[C@H]2C[C@H](N)[C@H](O)[C@H](C)O2)C1)C(=O)c1ccccc1C3=O [idarubicine, idarubicin]	–	–	–	–	slightly different effect on the NCI60 tumor cell lines
